The NIST ThermoML archive (doi:10.1016/j.tca.2004.11.013)
± gives the expanded uncertainty stated by the source.

Experiments:
[1] = molar heat capacity at constant pressure; details: 101.33 kPa, Liquid, Small sample (50 mg) DSC
[2] = Molar enthalpy of transition or fusion; details: Crystal; DSC
[3] = for viscosity: 298 K, moving piston; for viscosity / thermal conductivity / mass density: 101.33 kPa, Liquid; for thermal conductivity: hot wire; for mass density: 333.1 K, Vibrating tube method; for Normal melting temperature: Crystal

In the case of `CCC[n+]1ccn(C)c1C.O=S(=O)([N-]S(=O)(=O)C(F)(F)F)C(F)(F)F`, the “molar heat capacity at constant pressure” value ([1]; 323.15 K) is reported as 473.46 ± 190 J/K/mol, the “molar heat capacity at constant pressure” value ([1]; 348.15 K) is reported as 487.72 ± 200 J/K/mol and the “molar heat capacity at constant pressure” value ([1]; 373.15 K) is reported as 501.98 ± 200 J/K/mol. For the same molecule, the “molar heat capacity at constant pressure” value ([1]; 398.15 K) was 515.4 ± 210 J/K/mol, the “molar heat capacity at constant pressure” value ([1]; 423.15 K) was 528.4 ± 210 J/K/mol and the “molar heat capacity at constant pressure” value ([1]; 448.15 K) was 540.98 ± 220 J/K/mol. For the same molecule, the “molar heat capacity at constant pressure” value ([1]; 473.15 K) was 553.14 ± 220 J/K/mol, the “molar heat capacity at constant pressure” value ([1]; 498.15 K) was 564.47 ± 230 J/K/mol and the “molar heat capacity at constant pressure” value ([1]; 523.15 K) was 575.79 ± 230 J/K/mol. The “molar heat capacity at constant pressure” value ([1]; 548.15 K) was 586.69 ± 230 J/K/mol, the “molar heat capacity at constant pressure” value ([1]; 573.15 K) was 597.18 ± 240 J/K/mol and the “molar heat capacity at constant pressure” value ([1]; 598.15 K) was 607.24 ± 240 J/K/mol. For the same molecule, the “molar heat capacity at constant pressure” value ([1]; 623.15 K) was 616.89 ± 250 J/K/mol, the “molar heat capacity at constant pressure” value ([1]; 663.15 K) was 631.15 ± 250 J/K/mol and the “Molar enthalpy of transition or fusion” value [2] was 4.71 ± 1.91 kcal/mol. For the same molecule, the viscosity [3] was 90.05 ± 2.7 mPa·s, the thermal conductivity ([3]; 300 K) was 0.13 ± 0.005 W/m/K and the thermal conductivity ([3]; 310 K) was 0.13 ± 0.005 W/m/K. The thermal conductivity ([3]; 320 K) was 0.129 ± 0.005 W/m/K, the thermal conductivity ([3]; 330 K) was 0.129 ± 0.005 W/m/K and the mass density [3] was 1420.5 ± 0.8 kg/m3. For the same molecule, the thermal conductivity ([3]; 340 K) was 0.128 ± 0.005 W/m/K, the thermal conductivity ([3]; 350 K) was 0.128 ± 0.005 W/m/K and the thermal conductivity ([3]; 360 K) was 0.127 ± 0.005 W/m/K. For the same molecule, the thermal conductivity ([3]; 370 K) was 0.127 ± 0.005 W/m/K, the thermal conductivity ([3]; 380 K) was 0.126 ± 0.005 W/m/K and the thermal conductivity ([3]; 390 K) was 0.126 ± 0.005 W/m/K. The Normal melting temperature ([3]; DTA) was 11.29 ± 2.6 °C.

With `CCCCn1cc[n+](C)c1.F[B-](F)(F)F` [1-butyl-3-methylimidazolium tetrafluoroborate] the “molar heat capacity at constant pressure” value ([1]; 223.15 K) was 268.74 ± 110 J/K/mol, the “molar heat capacity at constant pressure” value ([1]; 248.15 K) was 289.54 ± 120 J/K/mol and the “molar heat capacity at constant pressure” value ([1]; 273.15 K) was 308.75 ± 120 J/K/mol. For the same molecule, the “molar heat capacity at constant pressure” value ([1]; 298.15 K) was 326.15 ± 130 J/K/mol, the “molar heat capacity at constant pressure” value ([1]; 323.15 K) was 341.75 ± 140 J/K/mol and the “molar heat capacity at constant pressure” value ([1]; 348.15 K) was 355.76 ± 140 J/K/mol. For the same molecule, the “molar heat capacity at constant pressure” value ([1]; 373.15 K) was 367.74 ± 150 J/K/mol, the “molar heat capacity at constant pressure” value ([1]; 398.15 K) was 378.36 ± 150 J/K/mol and the “molar heat capacity at constant pressure” value ([1]; 423.15 K) was 386.95 ± 150 J/K/mol. For the same molecule, the “molar heat capacity at constant pressure” value ([1]; 448.15 K) was 393.96 ± 160 J/K/mol, the “molar heat capacity at constant pressure” value ([1]; 473.15 K) was 399.16 ± 160 J/K/mol and the “molar heat capacity at constant pressure” value ([1]; 498.15 K) was 402.77 ± 160 J/K/mol. For the same molecule, the “molar heat capacity at constant pressure” value ([1]; 523.15 K) was 404.35 ± 160 J/K/mol, the “molar heat capacity at constant pressure” value ([1]; 548.15 K) was 404.35 ± 160 J/K/mol and the “molar heat capacity at constant pressure” value ([1]; 573.15 K) was 402.77 ± 160 J/K/mol. The viscosity [3] was 119.78 ± 4.1 mPa·s, the thermal conductivity ([3]; 300 K) was 0.186 ± 0.006 W/m/K and the thermal conductivity ([3]; 310 K) was 0.185 ± 0.006 W/m/K. It also gave a thermal conductivity ([3]; 320 K) of 0.184 ± 0.006 W/m/K, a thermal conductivity ([3]; 330 K) of 0.184 ± 0.006 W/m/K and a mass density [3] of 1174.7 ± 0.7 kg/m3. The thermal conductivity ([3]; 340 K) was 0.183 ± 0.006 W/m/K, the thermal conductivity ([3]; 350 K) was 0.183 ± 0.006 W/m/K and the thermal conductivity ([3]; 360 K) was 0.182 ± 0.006 W/m/K. The thermal conductivity ([3]; 370 K) was 0.181 ± 0.006 W/m/K, the thermal conductivity ([3]; 380 K) was 0.181 ± 0.006 W/m/K and the thermal conductivity ([3]; 390 K) was 0.18 ± 0.006 W/m/K. For the same molecule, the Glass transition temperature ([3]; Glass, DTA) was -87.38 ± 2.6 °C.

In the case of `CCn1cc[n+](C)c1.F[B-](F)(F)F` [1-ethyl-3-methylimidazolium tetrafluoroborate], the “molar heat capacity at constant pressure” value ([1]; 273.15 K) is reported as 244.49 ± 98 J/K/mol, the “molar heat capacity at constant pressure” value ([1]; 293.15 K) is reported as 250.04 ± 100 J/K/mol and the “molar heat capacity at constant pressure” value ([1]; 313.15 K) is reported as 254 ± 100 J/K/mol. The “molar heat capacity at constant pressure” value ([1]; 333.15 K) was 256.77 ± 100 J/K/mol, the “molar heat capacity at constant pressure” value ([1]; 353.15 K) was 258.15 ± 100 J/K/mol and the “molar heat capacity at constant pressure” value ([1]; 373.15 K) was 257.95 ± 100 J/K/mol. The “molar heat capacity at constant pressure” value ([1]; 393.15 K) was 256.57 ± 100 J/K/mol, the “molar heat capacity at constant pressure” value ([1]; 403.15 K) was 255.18 ± 100 J/K/mol and the “Molar enthalpy of transition or fusion” value [2] was 2.28 ± 0.908 kcal/mol. The viscosity [3] was 36.07 ± 0.75 mPa·s, the thermal conductivity ([3]; 300 K) was 0.199 ± 0.006 W/m/K and the thermal conductivity ([3]; 310 K) was 0.197 ± 0.006 W/m/K. The thermal conductivity ([3]; 320 K) was 0.196 ± 0.006 W/m/K, the thermal conductivity ([3]; 330 K) was 0.195 ± 0.006 W/m/K and the mass density [3] was 1252.6 ± 0.8 kg/m3. For the same molecule, the thermal conductivity ([3]; 340 K) was 0.194 ± 0.006 W/m/K, the thermal conductivity ([3]; 350 K) was 0.193 ± 0.006 W/m/K and the thermal conductivity ([3]; 360 K) was 0.191 ± 0.006 W/m/K. It also gave a thermal conductivity ([3]; 370 K) of 0.19 ± 0.006 W/m/K, a thermal conductivity ([3]; 380 K) of 0.189 ± 0.006 W/m/K and a thermal conductivity ([3]; 390 K) of 0.188 ± 0.006 W/m/K. The Normal melting temperature ([3]; DTA) was 14.42 ± 1.1 °C.
